From publication PMC3488456 (Bioorganic & medicinal chemistry letters, 2012)

Columns and labels:
Rat pharmacokinetics = format: in vivo, Sprague-Dawley rats; details: for clearance: Sprague-Dawley, rat, in vivo, iv, 1 mg/kg
Mouse brain penetration = format: in vivo, C57Bl6 mice; details: mice
LRH1 = details: same FRET assay; cited from earlier work
SF1 = details: same FRET assay; cited from earlier work
FXR = details: same FRET assay; cited from earlier work
RORα = details: same FRET assay; cited from earlier work
LXRα = details: reporter-gene assay; cited from earlier work
LXRβ = details: reporter-gene assay; cited from earlier work
Rev-erbα = target: T1, Rev-erbα (Homo sapiens, UniProt P20393); format: cell-based
T1 sequence (P20393 1-614): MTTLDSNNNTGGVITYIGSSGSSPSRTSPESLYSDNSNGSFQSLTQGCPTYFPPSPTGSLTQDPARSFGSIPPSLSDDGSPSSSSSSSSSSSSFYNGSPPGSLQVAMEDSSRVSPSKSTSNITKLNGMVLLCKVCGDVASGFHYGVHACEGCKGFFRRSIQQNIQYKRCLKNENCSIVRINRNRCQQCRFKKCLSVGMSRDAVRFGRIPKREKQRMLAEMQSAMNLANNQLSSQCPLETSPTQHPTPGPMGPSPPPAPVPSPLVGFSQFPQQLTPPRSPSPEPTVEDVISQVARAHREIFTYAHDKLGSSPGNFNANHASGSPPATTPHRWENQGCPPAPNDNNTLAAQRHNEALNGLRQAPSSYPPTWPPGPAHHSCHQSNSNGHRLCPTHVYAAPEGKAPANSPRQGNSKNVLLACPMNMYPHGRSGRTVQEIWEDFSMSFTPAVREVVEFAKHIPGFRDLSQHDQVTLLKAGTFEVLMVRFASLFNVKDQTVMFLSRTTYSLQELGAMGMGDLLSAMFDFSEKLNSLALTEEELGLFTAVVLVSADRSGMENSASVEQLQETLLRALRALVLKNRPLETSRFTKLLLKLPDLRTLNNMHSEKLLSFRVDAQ

In the case of `CC(C)(C)OC(=O)CN(Cc1ccc(Cl)cc1)Cc1ccc([N+](=O)[O-])s1` [Compound 1], the clearance (Rat pharmacokinetics) is reported as 353 mL/min/kg, the “oral bioavailability / oral absorption (in words)” value (Rat pharmacokinetics; rats) is reported as “poor oral bioavailability” and the “plasma clearance (in words)” value (Rat pharmacokinetics; rats) is reported as “very high plasma clearance”. For the same compound, the “volume of distribution (in words)” value (Rat pharmacokinetics; rats) was “high volume of distribution”, the “rodent pharmacokinetics (in words)” value (Rat pharmacokinetics; rodent) was “poor” and the “brain penetration (in words)” value (Mouse brain penetration) was “good brain penetration”. The “activity on LRH1” value (LRH1) was “no activity”, the “activity on SF1” value (SF1) was “no activity” and the “activity on FXR” value (FXR) was “no activity”. For the same compound, the “activity on RORα” value (RORα) was “no activity”, the “activity on LXRα” value (LXRα) was “no activity” and the “activity on LXRβ” value (LXRβ) was “no activity”.

For `CCOC(=O)C1Cc2ccccc2CN1C(=O)c1ccno1` (centres unmarked) [Compound 3n], the EC50 (Rev-erbα) was 2500 nM.

In the case of `O=C(c1cccc2ccccc12)N1Cc2ccccc2CC1COCc1ccccc1` (centres unmarked) [Compound 6d], the clearance (Rat pharmacokinetics) is reported as 39 mL/min/kg and the “oral bioavailability / oral absorption (in words)” value (Rat pharmacokinetics; rats) is reported as “poor oral absorption”.

In the case of `O=C(c1cccc2ccccc12)N1Cc2ccccc2CC1CNCc1ccccc1` (centres unmarked) [Compound 7d], the clearance (Rat pharmacokinetics) is reported as 43 mL/min/kg and the “oral bioavailability / oral absorption (in words)” value (Rat pharmacokinetics; rats) is reported as “poor oral absorption”.
